According to ChEMBL document CHEMBL5137044, “Expansion of the S-CN-DABO scaffold to exploit the impact on inhibitory activities against the non-nucleoside HIV-1 reverse transcriptase” (Eur J Med Chem, 2022):

Tests used:
[1] = Fold resistance, ratio of EC50 for antiviral activity against drug-resistant HIV-1 Y188L mutant infected in human MT4 cells to EC50 for antiviral activity against […] HIV-1 infected in human MT4 cells; assay type: functional
[2] = Fold resistance, ratio of EC50 for antiviral activity against drug-resistant HIV-1 Y181C mutant infected in human MT4 cells to EC50 for antiviral activity against […] HIV-1 infected in human MT4 cells; assay type: functional
[3] = test system: Human immunodeficiency virus 1; test: Antiviral activity against […] HIV-1 infected in human MT4 cells assessed as reduction in virus-induced cytopathic effect incubated for 5 days by MTT assay; assay type: functional, organism-based; details: Human immunodeficiency virus 1, MT4, 120 h
[4] = biological target: Human immunodeficiency virus type 1 reverse transcriptase (Human immunodeficiency virus 1, UniProt Q72547); test: Inhibition of recombinant wild-type p66/p51 HIV-1 reverse transcriptase incubated for 40 mins by picogreen dye-based spectrofluorometric analysis
[5] = Fold resistance, ratio of EC50 for antiviral activity against drug-resistant HIV-1 L100I mutant infected in human MT4 cells to EC50 for antiviral activity against […] HIV-1 infected in human MT4 cells; assay type: functional
[6] = test system: Human immunodeficiency virus 1; test: Antiviral activity against drug-resistant HIV-1 K103 N mutant infected in human MT4 cells assessed as reduction in virus-induced cytopathic effect incubated for 5 days by MTT assay; assay type: functional, organism-based; details: Human immunodeficiency virus 1, K103 N mutant, MT4, 120 h
[7] = Selectivity index, ratio of CC50 for human MT4 cells to EC50 for antiviral activity against NNRTI resistant HIV-1 infected in human MT4 cells; assay type: toxicity, cell-based; details: read-out: Ratio CC50/EC50
[8] = test system: Human immunodeficiency virus 1; test: Antiviral activity against drug-resistant HIV-1 Y188L mutant infected in human MT4 cells assessed as reduction in virus-induced cytopathic effect incubated for 5 days by MTT assay; assay type: functional, organism-based; details: Human immunodeficiency virus 1, Y188L mutant, MT4, 120 h
[9] = test system: Human immunodeficiency virus 1; test: Antiviral activity against drug-resistant HIV-1 L100I mutant infected in human MT4 cells assessed as reduction in virus-induced cytopathic effect incubated for 5 days by MTT assay; assay type: functional, organism-based; details: Human immunodeficiency virus 1, L100I mutant, MT4, 120 h
[10] = Fold resistance, ratio of EC50 for antiviral activity against drug-resistant HIV-1 K103 N mutant infected in human MT4 cells to EC50 for antiviral activity against […] HIV-1 infected in human MT4 cells; assay type: functional
[11] = Fold resistance, ratio of EC50 for antiviral activity against drug-resistant HIV-1 E138K mutant infected in human MT4 cells to EC50 for antiviral activity against […] HIV-1 infected in human MT4 cells; assay type: functional
[12] = test system: Human immunodeficiency virus 1; test: Antiviral activity against drug-resistant HIV-1 Y181C mutant infected in human MT4 cells assessed as reduction in virus-induced cytopathic effect incubated for 5 days by MTT assay; assay type: functional, organism-based; details: Human immunodeficiency virus 1, Y181C mutant, MT4, 120 h
[13] = Cytotoxicity against human MT4 cells assessed as cell growth inhibition incubated for 5 days by MTT assay; assay type: toxicity, cell-based; details: time 5 day
[14] = test system: Human immunodeficiency virus 1; test: Antiviral activity against drug-resistant HIV-1 E138K mutant infected in human MT4 cells assessed as reduction in virus-induced cytopathic effect incubated for 5 days by MTT assay; assay type: functional, organism-based; details: Human immunodeficiency virus 1, E138K mutant, MT4, 120 h

| Structure (SMILES) | Ratio EC50 [1] | Ratio EC50 [2] | EC50 [3] | IC50 [4] | Ratio EC50 [5] | EC50 [6] | selectivity ratio [7] | EC50 [8] | EC50 [9] | Ratio EC50 [10] | Ratio EC50 [11] | EC50 [12] | CC50 at 120 h [13] | EC50 [14] |
| --- | --- | --- | --- | --- | --- | --- | --- | --- | --- | --- | --- | --- | --- | --- |
| Cc1c(C(C#N)c2ccc(Br)cc2)nc(SC(C)C)[nH]c1=O (configuration not stated) | >70 | >70 | 0.67 µM | 1.78 µM | >15 | > 47.1 µM | 71 | > 47.1 µM | > 10.3 µM | >70 | >2 | > 47.1 µM | 47.1 µM | 1.25 µM |
| Cc1c(C(C#N)c2cccc(Br)c2)nc(SC(C)C)[nH]c1=O (configuration not stated) | >445 | 23 | 0.28 µM | 0.57 µM | 26 | 47.6 µM | 443 | > 125 µM | 7.37 µM | >170 | 3 | 6.43 µM | 125 µM | 0.71 µM |
| Cc1c(C(C#N)c2cccc3c2OCO3)nc(SC(C)C)[nH]c1=O (configuration not stated) | >214 | 113 | 0.45 µM | 1.35 µM | 22 | > 96.5 µM | 213 | > 96.5 µM | 10 µM | >214 | 4 | 50.7 µM | 96.5 µM | 1.94 µM |
| Cc1cccc(C)c1C(C#N)c1nc(SC(C)C)[nH]c(=O)c1C (configuration not stated) | >73 | >73 | 0.93 µM | 6.59 µM | >73 | > 68.1 µM | 73 | > 68.1 µM | > 68.1 µM | >73 | 4 | > 68.1 µM | 68.1 µM | 3.48 µM |
| COc1ccccc1C(C#N)c1nc(SC(C)C)[nH]c(=O)c1C (configuration not stated) | 687 | 48 | 0.04 µM | 0.158 µM | 10 | 3.51 µM | > 9380 | 27.5 µM | 0.4 µM | 88 | 2 | 1.91 µM | > 379 µM | 0.09 µM |
| COc1cc(OC)cc(C(C#N)c2nc(SC(C)C)[nH]c(=O)c2C)c1 (configuration not stated) | >61 | >61 | 0.67 µM | 2.58 µM | 5 | > 41.1 µM | 61 | > 41.1 µM | 3.36 µM | >61 | 4 | > 41.1 µM | 41.1 µM | 2.54 µM |
| Cc1c(C(C#N)c2ccc(F)cc2)nc(SC(C)C)[nH]c1=O (configuration not stated) | >28 | >28 | 3.98 µM | 14.3 µM | 16 | > 113 µM | 28 | > 113 µM | 63.5 µM | >28 | 3 | > 113 µM | 113 µM | 12.6 µM |
| Cc1c(C(C#N)c2cccnc2)nc(SC(C)C)[nH]c1=O (configuration not stated) | >14 | >14 | 26.2 µM | 318 µM | 2 | > 363 µM | 14 | > 363 µM | 47.9 µM | >14 | 2 | > 363 µM | 363 µM | 54.1 µM |
| Cc1ccc(C(C#N)c2nc(SC(C)C)[nH]c(=O)c2C)cc1 (configuration not stated) | >40 | >40 | 0.32 µM | 0.667 µM | >40 | > 12.9 µM | 40 | > 12.9 µM | > 12.9 µM | >40 | 2 | > 12.9 µM | 12.8 µM | 0.63 µM |
| Cc1c(C(C#N)c2ccc(Cl)cc2)nc(SC(C)C)[nH]c1=O (configuration not stated) | >56 | >56 | 1.26 µM | 3.37 µM | >11 | > 70.2 µM | 56 | > 70.2 µM | > 14.4 µM | >56 | 3 | > 70.2 µM | 70.2 µM | 4.19 µM |
| Cc1c(C(C#N)c2ccc(F)c(C#N)c2)nc(SC(C)C)[nH]c1=O (configuration not stated) | >8 | >8 | 21.4 µM | 83.8 µM | 3 | > 164 µM | 8 | > 164 µM | 57 µM | >8 | 2 | > 164 µM | 164 µM | 41.9 µM |
| Cc1c(C(C#N)c2ccccn2)nc(SC(C)C)[nH]c1=O (configuration not stated) | >207 | 35 | 1.47 µM | 9.4 µM | 31 | > 304 µM | 207 | > 304 µM | 45.9 µM | >207 | 3 | 51.2 µM | 304 µM | 3.8 µM |
| Cc1cc(C)cc(C(C#N)c2nc(SC(C)C)[nH]c(=O)c2C)c1 (configuration not stated) | 702 | 52 | 0.079 µM | 0.226 µM | 29 | 9.05 µM | 2770 | 55.5 µM | 2.29 µM | 115 | 6 | 4.11 µM | 220 µM | 0.45 µM |
